In patent publication US20150272881A1, “REDUCED PYRROLOQUINOLINE QUINONE GEL” (MITSUBISHI GAS CHEMICAL COMPANY, INC., priority 2011, published 2015):

Format: physicochemical
Excerpt: The “solubility” in this description means the limit of dissolving of a solute in a solvent; it can be expressed as the concentration of a solute in a saturated solution. The solubility of the oxidized pyrroloquinoline quinone derivative or a salt thereof can be appropriately decided depending on the temperature of the mixture.

SMILES: O=C([O-])c1cc(C(=O)[O-])c2c(n1)C(=O)C(=O)c1cc(C(=O)O)[nH]c1-2.[Na+].[Na+] [oxidized pyrroloquinoline quinone disodium]
- solubility: 0.299 g with respect to 100 g of water
